Assay [1] concerns the target T1, Aurora A (Homo sapiens (Human), UniProt O14965). Briefly: Aurora A enzyme inhibition assay. The format is biochemical. As for the experimental part:
Aurora A Enzyme Inhibition Assay
(§1) The compound was dissolved in 100% DMSO at the concentration of 10 mM. The Aurora A protein was purchased from Carna (05-101). 10 μL per well of 2.5×Aurora A protein was added to assay plate containing the test compound, centrifuged at 1000 rpm for 1 minute, and then incubated at 25° C. for 10 minutes. Peptide 21 was purchased from GL Biochem (116370) and ATP was purchased from Promega (V9102). The two were added 15 μL per well mixture of 1.67× peptide 21 (final conc. is 3 μM) and ATP (final conc. is 14.58 μM), centrifuged at 1000 rpm for 1 minute, then incubated at 25° C. for 40 minutes. Then added 30 μL of stop buffer (100 mM HEPES pH7.5, 0.015% Brij-35, 0.2% Coating Reagent 3, 50 mM EDTA) to the assay plate and centrifuged at 1000 rpm for 1 minute. the product was determined. Based on the results, the IC50 value of the compound was calculated.

For assay [2], the target named is T1, Aurora A. In words: Aurora A degradation assay (western blot). The format is cell-based. Conditions: for Dmax: read-out: Aurora A Dmax. As for the experimental part: Aurora A Degradation Assay
(§2) IMR32 cells were cultured with medium (MEM), Huh7 cells were cultured with medium (DMEM) and HL-60 cells were culture with medium (IMDM) prior to use. Cells were then incubated with a variety of concentrations of compound. After incubation, the cells were collected and lysed. The protein concentration was determined by BCA protein assay kit from Thermo (23227). The AURKA protein level was determined by western blots, using anti-human AURKA monoclonal antibody from CST (14475S). Proteins were loaded into each well of the pre-casting gels and subjected to electrophoretic separation by SDS-PAGE. The protein resolved by SDS-PAGE were transferred to PVDF, blocked by 5% skim milk, and probed with anti-human AURKA antibody or β-actin antibody from CST (3700S) or COX IV antibody from CST (4850S), using standard western blotting procedure.
For orientation: In western blotting, separated proteins are transferred to a membrane and probed.

Another assay addresses FLT3-ITD (Homo sapiens, UniProt P36888, ITD). In words: FLT3-ITD enzyme inhibition assay. The format is biochemical. As for the experimental part:
FLT3-ITD Enzyme Inhibition Assay
as §1, with “FLT3-ITD” for “Aurora A”, “Invitrogen (PV6191).” for “Carna (05-101).”, “2.5×FLT3-ITD” for “2.5×Aurora A”, “2” for “21”, “(112394)” for “(116370)”, “97.2” for “14.58”

The next assay has as its system FLT3. Briefly: FLT3 degradation assay (western blot, MV-411 cells). Format: cell-based, human. Here is the method: as §2, with “MV-411” for “IMR32”, “cultured” for “cultured with medium (MEM), Huh7 cells were cultured with medium (DMEM) and HL-60 cells were culture”, “[…]” for “AURKA”, “(3462S).” for “(14475S).”, “-actin” for “β-actin”, “(3700S),” for “(3700S) or COX IV antibody from CST (4850S),”

Assay [3] deals with T2, HPK1 (Homo sapiens (Human), UniProt Q92918). In words: HPK1 degradation assay (western blot, human PBMC). Conditions: for Dmax: read-out: HPK1 Dmax. The format is cell-based. Here is the method: Frozen human PBMC were purchased from Shanghai OribioTech and recovered with culture medium (RMPI1640) prior to use. The cells were then incubated with a variety of concentrations of compound. After incubation, the cells were collected and lysed. The protein concentration was determined by BCA protein assay kit from Thermo (23227). The HPK1 protein level was determined by western blots, using anti-human HPK1 polyclonal antibody from CST (4472S). Proteins were loaded into each well of the pre-casting gels and subjected to electrophoretic separation by SDS-PAGE. The protein resolved by SDS-PAGE were transferred to PVDF, blocked by 5% skim milk, and probed with anti-human HPK1 antibody or β-actin antibody from CST (3700S), using standard western blotting procedure.
Target sequence in this assay (Q92918 whole entry): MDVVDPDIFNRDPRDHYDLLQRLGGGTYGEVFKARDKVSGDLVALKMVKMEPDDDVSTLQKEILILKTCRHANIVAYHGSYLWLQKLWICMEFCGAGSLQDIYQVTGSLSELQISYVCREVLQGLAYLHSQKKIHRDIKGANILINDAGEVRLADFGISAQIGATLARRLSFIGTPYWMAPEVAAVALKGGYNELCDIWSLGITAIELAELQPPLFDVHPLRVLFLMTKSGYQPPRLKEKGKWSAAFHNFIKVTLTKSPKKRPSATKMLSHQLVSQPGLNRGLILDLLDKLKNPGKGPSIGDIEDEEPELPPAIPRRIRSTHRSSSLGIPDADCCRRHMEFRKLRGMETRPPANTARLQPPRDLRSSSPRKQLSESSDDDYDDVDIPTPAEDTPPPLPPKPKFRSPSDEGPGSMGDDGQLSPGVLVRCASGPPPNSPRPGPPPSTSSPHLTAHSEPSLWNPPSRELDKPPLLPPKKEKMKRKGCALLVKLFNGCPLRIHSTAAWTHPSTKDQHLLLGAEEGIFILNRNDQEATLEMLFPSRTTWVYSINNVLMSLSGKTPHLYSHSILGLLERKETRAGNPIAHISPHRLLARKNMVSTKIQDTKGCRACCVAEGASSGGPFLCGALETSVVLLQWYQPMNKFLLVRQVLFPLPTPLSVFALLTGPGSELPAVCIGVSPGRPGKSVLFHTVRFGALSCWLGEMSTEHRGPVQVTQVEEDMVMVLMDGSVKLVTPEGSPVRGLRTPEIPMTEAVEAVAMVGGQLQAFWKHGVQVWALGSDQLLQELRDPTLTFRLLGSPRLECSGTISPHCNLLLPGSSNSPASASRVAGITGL

For the next assay, the system named is MEK 1/2. Briefly: MEK 1/2 degradation assay (western blot). The format is cell-based, human. Here is the method: MEK 1/2 Degradation Assay
MV-411 cells were cultured with medium (IMDM) and IMR32 cells were cultured with medium (MEM) prior to use. Cells were then incubated with a variety of concentrations of compound. After incubation, the cells were collected and lysed. The protein concentration was determined by BCA protein assay kit from Thermo (23227). The […] protein level was determined by western blots, using anti-human MEK 1/2 polyclonal antibody from CST (9122S). Proteins were loaded into each well of the pre-casting gels and subjected to electrophoretic separation by SDS-PAGE. The protein resolved by SDS-PAGE were transferred to PVDF, blocked by 5% skim milk, and probed with anti-human MEK1/2 antibody or β-actin antibody from CST (3700S) and COX IV antibody from CST (4850S), using standard western blotting procedure.

Assay [4] addresses T2, HPK1. In words: HPK1 enzyme inhibition assay (ADP-Glo). The format is biochemical. As for the experimental part:
HPK1 Enzyme Inhibition Assay
The compound was dissolved in 100% DMSO at the concentration of 10 mM. The HPK1 protein was purchased from Signal Chem (M23-11G-10). 2.5 μL per well of 2×HPK1 protein was added to assay plate containing the test compound, centrifuged at 1500 rpm for 1 minute, and then incubated at 25° C. for 60 minutes. MBP protein was purchased from Signal Chem (M42-51N) and ATP was purchased from Promega (V9102). The two were added 2.5 μL per well mixture of 2×MBP (0.2 ug/ul) and ATP (20 μM), centrifuged at 1500 rpm for 1 minute, then incubated at 25° C. for 60 minutes. Then added 5 μL of ADP-Glo from Promega (V9102) to the assay plate and depleted the unconsumed ATP for 60 minutes. Then centrifuged at 1500 rpm for 1 minute and incubated at 25° C. for 60 minutes. Finally, 10 μL of the kinase assay reagent from Promega (V9102) was added to the assay plate to convert ADP to ATP, centrifuged at 1500 rpm for 1 minute, incubate at 25° C. for 40 minutes. After 40 minutes incubation, the […] was determined. Based on the results, the IC50 value of the compound was calculated.
Target sequence in this assay (Q92918 1-346 limits assumed): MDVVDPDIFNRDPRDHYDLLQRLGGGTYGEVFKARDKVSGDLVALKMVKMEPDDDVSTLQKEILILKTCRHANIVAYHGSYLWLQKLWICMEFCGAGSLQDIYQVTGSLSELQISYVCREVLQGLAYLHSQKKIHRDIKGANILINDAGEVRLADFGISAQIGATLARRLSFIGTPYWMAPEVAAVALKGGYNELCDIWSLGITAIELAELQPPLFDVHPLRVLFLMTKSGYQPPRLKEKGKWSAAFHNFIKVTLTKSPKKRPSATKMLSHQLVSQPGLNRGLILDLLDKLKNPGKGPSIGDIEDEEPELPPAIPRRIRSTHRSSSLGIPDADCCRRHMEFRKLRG
Background: In ADP-Glo the light output rises with the ADP produced.

Setting [5] is: enzyme inhibition, read-out: FLT3-ITD IC50.
[6] abbreviates: protein degradation, class symbol, read-out: FLT3 DC50 (nM)/Dmax (%).
[7] abbreviates: protein degradation, human PBMC, class symbol, read-out: HPK1 DC50 (nM)/Dmax (%).
Where [8] appears, read: protein degradation, MV-411 or IMR32 cells.
The mark [9] stands for this setting: protein degradation, MV-411 or IMR32 cells; read-out: MEK 1/2 DC50.
The mark [10] stands for this setting: protein degradation, IMR32, Huh7 or HL-60 cells, read-out: Aurora A DC50.
Setting [11] is: read-out: FLT3 DC50, protein degradation.
The mark [12] stands for this setting: protein degradation, human PBMC, read-out: HPK1 DC50.
Setting [13] is: read-out: MEK 1/2 DC50; protein degradation, MV-411 or IMR32 cells.
The mark [14] stands for this setting: protein degradation, IMR32, Huh7 or HL-60 cells.

Structures are written as SMILES. Like-named read-outs stand apart in the source and are kept apart here.

T1 sequence (O14965 whole entry): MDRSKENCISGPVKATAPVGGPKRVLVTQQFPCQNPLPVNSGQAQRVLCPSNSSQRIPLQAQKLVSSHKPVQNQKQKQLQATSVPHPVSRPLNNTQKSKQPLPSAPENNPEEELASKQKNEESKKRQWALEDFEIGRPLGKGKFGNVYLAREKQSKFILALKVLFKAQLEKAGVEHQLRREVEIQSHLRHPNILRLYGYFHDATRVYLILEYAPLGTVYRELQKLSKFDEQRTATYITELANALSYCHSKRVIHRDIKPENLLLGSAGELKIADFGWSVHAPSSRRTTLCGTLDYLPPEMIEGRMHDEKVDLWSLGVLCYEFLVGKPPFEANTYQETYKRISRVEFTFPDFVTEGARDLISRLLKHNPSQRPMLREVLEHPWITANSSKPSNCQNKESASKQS
FLT3-ITD, sequence (P36888 whole entry, looked up, change not shown): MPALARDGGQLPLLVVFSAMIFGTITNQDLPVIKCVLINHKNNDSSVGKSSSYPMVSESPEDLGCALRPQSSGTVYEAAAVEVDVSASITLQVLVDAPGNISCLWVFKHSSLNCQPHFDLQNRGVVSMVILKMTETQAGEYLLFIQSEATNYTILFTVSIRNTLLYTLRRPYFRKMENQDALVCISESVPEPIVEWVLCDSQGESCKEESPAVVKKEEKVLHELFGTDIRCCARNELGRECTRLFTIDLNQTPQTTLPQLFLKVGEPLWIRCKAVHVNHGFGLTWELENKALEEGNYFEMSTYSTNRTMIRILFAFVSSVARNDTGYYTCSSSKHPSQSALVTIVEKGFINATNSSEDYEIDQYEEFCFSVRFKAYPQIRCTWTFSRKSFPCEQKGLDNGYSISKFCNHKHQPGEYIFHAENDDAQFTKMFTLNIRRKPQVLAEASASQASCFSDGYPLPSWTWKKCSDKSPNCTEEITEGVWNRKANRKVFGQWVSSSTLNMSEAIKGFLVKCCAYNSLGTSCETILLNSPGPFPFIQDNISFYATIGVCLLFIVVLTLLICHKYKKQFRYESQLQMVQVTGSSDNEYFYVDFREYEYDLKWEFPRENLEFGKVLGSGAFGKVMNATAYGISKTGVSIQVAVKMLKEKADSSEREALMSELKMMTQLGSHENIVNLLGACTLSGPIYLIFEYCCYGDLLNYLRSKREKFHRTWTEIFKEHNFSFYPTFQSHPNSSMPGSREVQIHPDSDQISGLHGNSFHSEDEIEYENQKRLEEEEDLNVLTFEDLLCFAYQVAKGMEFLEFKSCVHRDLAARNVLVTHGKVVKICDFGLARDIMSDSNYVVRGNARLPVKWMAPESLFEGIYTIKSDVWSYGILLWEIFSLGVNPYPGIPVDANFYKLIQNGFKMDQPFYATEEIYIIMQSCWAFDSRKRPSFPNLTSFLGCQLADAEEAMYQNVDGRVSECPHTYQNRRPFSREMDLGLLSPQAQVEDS

With `CCc1c[nH]c2ncc(-c3cccc(N4CCCN(CCN5CC(c6ccc7c(c6)C(=O)N(C6CCC(=O)NC6=O)C7=O)C5)C4=O)c3)c(Cl)c12` (centres unmarked) [Example 6, 5-(1-(2-(3-(3-(4-chloro-3-ethyl-1H-pyrrolo [2,3-b]pyridin-5-yl)phenyl)-2-oxotetra hydropyrimidin-1 (2H)-yl)ethyl)azetidin-3-yl)-2-(2,6-dioxopiperidin-3-yl) isoindo line-1,3-dione], the IC50 (in general, the midpoint of a concentration-inhibition curve) at Aurora A [1] stood at 9.9 nM; at FLT3-ITD (setting [5]), 18.4 nM; on HPK1 [4], 3.1 nM. In addition, the DC50 on Aurora A [2] (protein degradation, IMR32, Huh7 or HL-60 cells, class symbol, read-out: Aurora A DC50 (nM)/Dmax (%)) is greater than 10000 nM; with FLT3 (setting [6]) it was greater than 10000 nM; on HPK1 [3] (setting [7]), greater than 10000 nM; in the assay on MEK 1/2 (setting [9]), less than 1 nM. Besides, the “MEK 1/2 Dmax” value with MEK 1/2 (setting [8]) came to 32%.
Regarding `CCc1c[nH]c2ncc(-c3cccc(N4CCCN(CC5CCN(c6ccc7c(c6)C(=O)N(C6CCC(=O)NC6=O)C7=O)CC5)C4=O)c3)c(Cl)c12` (centres unmarked) [Example 8, 5-(4-((3-(3-(4-chloro-3-ethyl-1H-pyrrolo [2,3-b]pyridin-5-yl)phenyl)-2-oxotetrahydropyrimidin-1 (2H)-yl)methyl)piperidin-1-yl)-2-(2,6-dioxopiperidin-3-yl) isoindoline-1,3-dione], the IC50 was determined as 110 nM at Aurora A [1], 5.7 nM on FLT3-ITD and 15.7 nM against HPK1 [4]. Further, the DC50 on Aurora A [2] (setting [10]) is less than 20 nM; with FLT3 (setting [11]), 8 nM; at HPK1 [3] (setting [12]) it was 85 nM; in the assay with MEK 1/2 (setting [13]), 82 nM. Further, the Dmax at Aurora A [2] and at HPK1 [3] was 95% each time. In addition, the “FLT3 Dmax” value in the assay with FLT3 (protein degradation) is given as 95%. In the assay with MEK 1/2 (setting [8]), the “MEK 1/2 Dmax” value was 91%.
As to `O=C1CCC(N2C(=O)c3cc(F)c(N4CCC(CCN5CCCN(c6cccc(-c7cnc8[nH]cc(C9CC9)c8c7Cl)c6)C5=O)CC4)cc3C2=O)C(=O)N1` (centres unmarked) [Example 9, 5-(4-(2-(3-(3-(4-chloro-3-cyclopropyl-1H-pyrrolo [2,3-b]pyridin-5-yl)phenyl)-2-oxotetrahydropyrimidin-1 (2H)-yl)ethyl)piperidin-1-yl)-2-(2,6-dioxopiperidin-3-yl)-6-fluoroisoindoline-1,3-dione], the IC50 against Aurora A [1] amounted to 131 nM; on FLT3-ITD (setting [5]), 36.5 nM; on HPK1 [4], 62.9 nM. Further, the DC50 was greater than 1000 nM on Aurora A [2] (setting [10]); 100 nM with FLT3 (setting [11]); 294 nM at HPK1 [3] (setting [12]); greater than 10000 nM in the assay on MEK 1/2 (read-out: MEK 1/2 DC50 (nM)/Dmax (%); protein degradation, MV-411 or IMR32 cells; class symbol). The Dmax at Aurora A [2] and on HPK1 [3] was 50% in each case. Further, the “FLT3 Dmax” value in the assay on FLT3 (protein degradation) was 60%.
Consider `O=C1CCC(N2Cc3ccc(N4CCC(CN5CCCN(c6cccc(-c7cnc8[nH]cc(C9CC9)c8c7Cl)c6)C5=O)CC4)cc3C2=O)C(=O)N1` (centres unmarked) [Example 11], for which the IC50 against Aurora A [1] is 21.2 nM; at FLT3-ITD (setting [5]), 20.8 nM; against HPK1 [4] it was 13.6 nM. The DC50 on Aurora A [2] (setting [10]) was 9 nM; in the assay on FLT3 (setting [6]), greater than 10000 nM; on HPK1 [3] (setting [7]), greater than 10000 nM; in the assay with MEK 1/2 (setting [9]), 49 nM. For the same compound, at Aurora A [2] (setting [14]), the maximal degradation (Dmax) – broadly, the largest share of the target that was removed – came to 50%. In addition, in the assay with MEK 1/2 (setting [8]), the “MEK 1/2 Dmax” value turned out to be 30%.
Regarding `O=C1CCC(N2Cc3ccc(N4CCC(CN5CCCN(c6cccc(-c7cnc8[nH]cc(CC(F)F)c8c7Cl)c6)C5=O)CC4)cc3C2=O)C(=O)N1` (centres unmarked) [Example 13], the 50% inhibitory concentration (IC50) against Aurora A [1] is 14.3 nM; at FLT3-ITD (setting [5]), 23.8 nM; against HPK1 [4], 12.5 nM. Besides, the DC50 at Aurora A [2] (setting [10]) is 3 nM; with FLT3 (setting [6]), greater than 10000 nM; at HPK1 [3] (setting [12]), 11 nM; in the assay on MEK 1/2 (setting [9]), less than 1 nM. In addition, the greatest degradation seen (Dmax) on Aurora A [2] (setting [14]) came to 70%; at HPK1 [3] (protein degradation, human PBMC), 50%. In the assay on MEK 1/2 (setting [8]), the “MEK 1/2 Dmax” value is recorded as 30%.
As to `CCc1c[nH]c2ncc(-c3cccc(N4CCCN(CC5CCN(c6ccc(NC7CCC(=O)NC7=O)cc6F)CC5)C4=O)c3)c(Cl)c12` (centres unmarked) [Example 15, 3-((4-(4-((3-(3-(4-chloro-3-ethyl-1H-pyrrolo [2,3-b]pyridin-5-yl)phenyl)-2-oxotetrahydropyrimidin-1 (2H)-yl)methyl)piperidin-1-yl)-3-fluorophenyl)amino) piperidine-2,6-dione], the IC50 was found to be 19.9 nM on Aurora A [1], 8.8 nM against FLT3-ITD and 4.6 nM at HPK1 [4]. In addition, the DC50 came out at 9.6 nM on Aurora A [2] (setting [10]), 0.02 nM with FLT3 (setting [11]), 6 nM on HPK1 [3] (setting [12]) and 1 nM in the assay on MEK 1/2 (setting [13]). For the same compound, the Dmax on Aurora A [2] stood at 82%; at HPK1 [3] it was 80%. In the assay on FLT3 (protein degradation), the “FLT3 Dmax” value turned out to be 34%. Besides, the “MEK 1/2 Dmax” value in the assay with MEK 1/2 (setting [8]) was determined as 38%.

Values taken from patent US20250368640A1 (BIOFRONT LTD, priority 2022, published 2025).
